Test results: BindingDB's records for patent US20240343720 (Xizang Haisco Pharmaceutical, 2024)

Molecular target: AP2-associated protein kinase 1 (Homo sapiens, UniProt Q2M2I8)
Assay: In Vitro AAK1 Enzyme Activity Assay
Method: Compound stock solution (concentration: 10 mM, dissolved in DMSO) was diluted with DMSO to 0.2 mM and then diluted with DMSO in 5-fold gradient to obtain compound solutions with 10 concentrations. Subsequently, the compound solutions with different concentrations were diluted 50-fold in 1×kinase reaction buffer (containing 40 mM Tris, 20 mM MgCl2, 0.1% BSA and 0.5 mM DTT) for later use. AAK1 (Signalchem, Cat #A01-11G-10) was diluted with 1×kinase reaction buffer to 2-fold the final concentration (final concentrations: 30 nM and 28 nM). AAK1 was added to a 384-well white plate at 2 μL/well, and the compounds were then added at 1 μL/well. The plate was sealed with a plate-sealing film, centrifuged at 1000 rpm for 30 seconds and then placed at room temperature for 10 minutes. A mixed solution of ATP (Promega, Cat #V914B) and substrate Micro2 (GenScript, Cat #PE0890) was formulated at 4-fold the final concentration (for AAK1, the corresponding final concentrations of ATP: 15 μM and 5 μM, and the corresponding final concentration of Micro2: 0.1 mg/mL). To the reaction plate was added the mixed solution of ATP and the substrate at 1 μL/well.

AP2-associated protein kinase 1, sequence (Q2M2I8 whole entry): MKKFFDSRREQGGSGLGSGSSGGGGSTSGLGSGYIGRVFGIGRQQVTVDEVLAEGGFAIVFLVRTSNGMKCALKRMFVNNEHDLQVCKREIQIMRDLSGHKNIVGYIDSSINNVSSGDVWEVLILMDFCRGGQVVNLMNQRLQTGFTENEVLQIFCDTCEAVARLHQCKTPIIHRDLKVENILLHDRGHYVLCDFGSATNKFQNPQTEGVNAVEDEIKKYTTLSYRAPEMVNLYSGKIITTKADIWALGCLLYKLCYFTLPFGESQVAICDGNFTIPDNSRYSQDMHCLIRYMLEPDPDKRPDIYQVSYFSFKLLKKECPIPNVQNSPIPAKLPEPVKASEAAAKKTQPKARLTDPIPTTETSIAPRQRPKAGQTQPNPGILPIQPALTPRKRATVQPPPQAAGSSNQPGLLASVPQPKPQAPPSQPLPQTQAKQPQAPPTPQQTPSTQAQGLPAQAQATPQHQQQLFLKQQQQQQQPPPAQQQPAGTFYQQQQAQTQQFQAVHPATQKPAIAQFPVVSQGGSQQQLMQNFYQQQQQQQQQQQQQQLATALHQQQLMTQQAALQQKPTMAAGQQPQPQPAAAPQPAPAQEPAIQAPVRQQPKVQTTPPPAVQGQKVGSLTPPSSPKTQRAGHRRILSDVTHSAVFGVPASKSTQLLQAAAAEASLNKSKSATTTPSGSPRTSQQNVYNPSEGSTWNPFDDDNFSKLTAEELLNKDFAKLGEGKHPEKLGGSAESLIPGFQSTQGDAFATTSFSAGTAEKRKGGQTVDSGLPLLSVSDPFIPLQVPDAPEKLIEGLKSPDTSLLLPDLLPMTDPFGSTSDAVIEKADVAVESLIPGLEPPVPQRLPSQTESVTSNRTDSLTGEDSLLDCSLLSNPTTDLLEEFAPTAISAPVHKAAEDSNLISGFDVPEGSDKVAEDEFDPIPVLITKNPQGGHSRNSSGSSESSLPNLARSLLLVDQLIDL

IC50: 5.74 nM
Compound: C=C(C)C[C@](C)(N)COc1cnc(-c2ccnc(NC(=O)OC)c2)cc1C(F)F [US20240343720, Compound 11]
